The results in this text go back to patent publication US8198293B2, “Oxymatrine compositions and related methods for treating and preventing chronic infectious diseases” (priority 2008, dated 2012).

Format in all cases: in vivo, human
Data set [1] has as its system enterovirus. Kind of data set: Case report: acute enterovirus infection of the gastrointestinal tract. Conditions: Example 10 patient, 200 mg bid, after ten days. An excerpt: A person developed subacute onset of severe fatigue, nausea, anorexia and progressive weight loss of 20 pounds following an upper respiratory infection.
Data set [2] has as its system chronic enterovirus infection / chronic fatigue. Put plainly: Case reports: treatment of chronic fatigue (Examples 2-5). As for the experimental part: A person with episodes of diarrhea while traveling to Tonga developed severe respiratory infection soon thereafter. The symptoms consisted of fevers to 105° F., night sweats, diffuse myalgia, tachycardia, fatigue, sinus congestion and cough, and unresponsiveness to antibiotics. The patient developed profound fatigue thereafter and went on total disability three months after the onset of symptoms. Initial Coxsackie B virus (CBV) 3, CVB4 and echovirus 9 antibody titers were 1:320, 1:160, 1:80 (normal <1:10), respectively.
The patient could not work for the next 18 months. They were started on oxymatrine at 300 mg twice a day (bid). After taking oxymatrine for two months, they were able to take short walks, but still exhausted after one hour of activity requiring five hour naps. At the end of three months of therapy, they started having fevers of 104-105° F. for several days with marked decrease in diffuse myalgia. […] CVB3, CVB4 and echovirus antibody three months after therapy were 1:160, 1:160 and 1:20, respectively.
A person who had recurrent episodes of debilitating fatigue became totally incapacitated after approximately 17 years. […] They went into remission but relapsed nine months later after developing a minor upper respiratory infection. They improved minimally after several months of bed rest, but was barely able to work six hours per day. They had brain fog, myalgia ( 7/10 pain) and was barely able to walk even 1-2 blocks.
Three days after taking oxymatrine at a dose of 300 mg bid, the myalgia intensified ( 10/10 pain), especially one hour after taking the pills. One week after starting oxymatrine, routine laboratory tests including CBC, chemistry panel and creatine phosphokinase (CPK) were normal. They continued having significant fatigue and myalgia for the next three weeks, but the symptoms resolved one week after stopping the medication. Mild increase in myalgia recurred three days after resuming oxymatrine, but resolved after continuing the medication for the next two weeks. The patient felt well at the end of three months with minimal discomfort in a few muscle groups.
Severe myalgia recurred after resuming vigorous exercise for three weeks while taking oxymatrine. They had to stop exercise for the two months allowing cessation of myalgia. After taking oxymatrine for six months, the patient felt well. Over the next six months after stopping the medication, the patient continuously performed heavy physical activities without significant difficulty. After developing another episode of upper respiratory symptoms, their symptoms relapsed. They have resumed oxymatrine but experienced increasing myalgia as the fatigue improved.
A person with a known history of frequent respiratory infections and vasovagal syncope developed respiratory infection, which was followed by bedridden fatigue. Enteroviral protein was detected in the stomach biopsy consistent with chronic enterovirus infection. […] After vigorous exercise, they would still have relapses of bedridden fatigue for one day but continued to work 10-12 hours per day for the next 12 months, walking two miles per day. Laboratory tests were normal while on therapy.
A person developed debilitating fatigue, sore throat, oral ulcers, vertigo, headaches and cognitive dysfunction two months after having a flu-like illness. […] Approximately four years later, the patient started taking oxymatrine. After an initial increase of gastrointestinal symptoms for the first two weeks, the patient tolerated 500 mg per day of oxymatrine.
The symptoms continued for two weeks and resolved after stopping oxymatrine. […] They continued to improve for 12 months after taking the medication.

The subject of data set [3] is enterovirus. Put plainly: Case reports: diarrhea with viral/enterovirus protein in colon biopsy (Examples 11, 12). From the text:
A person developed continuing watery diarrhea, as many as twenty episodes a day, and mild fatigue for three months. Laboratory studies and stool work-up were completely negative. […] They failed Asacol therapy.
A person developed severe watery diarrhea for two months. Stool evaluation was unremarkable. […] They continued to do well for six months on the medication. A decrease of medication to half the dose cause a relapse of the symptoms, which resolved after increasing the dosage.

Data set [4] deals with Varicella-Zoster Virus (VZV). Put plainly: Case report: chronic recurrent Varicella-Zoster Virus infection (shingles). Conditions: Example 9 patient, 200 mg bid. As for the experimental part:
A person developed recurrent shingles after multiple episodes of sinus infections and sinus surgeries. They also had chronic indigestion and nausea. Fatigue became so severe that they were bedridden for several years.
Coxsackievirus B4 antibody was 1:320. […] The patient was started on oxymatrine 200 mg bid.

For data set [5], the system named is Mycobacterium avium complex (MAC). Kind of data set: Case report: Mycobacterium avium complex infection of the lung. How it is done: A person with known history of Mycobacterium avium complex (MAC) infection of the lung and bronchiectasis for several years was treated with clarithromycin, ethambutol, ciprofloxacin and rifabutin for about five years. […] Intravenous amikacin was added following right middle and left lingula lobectomy. In spite of the above therapy, sputum and repeat bronchial washing obtained by bronchoscopy grew MAC within three weeks. A computed tomography scan of the chest remained unchanged except for the post-surgical changes.
Because of persistent positive cultures despite the four drug therapies, the patient was started on oxymatrine, which they tolerated well. […] Sputum became clear in color then resolved. About two months after the start of oxymatrine, the patient had fevers, flu-like symptoms, increase in non-productive cough, bilateral uveitis and elevation of liver enzymes to 3.5 times normal values. The symptoms lasted two weeks and resolved after tapering dose of oxymatrine to 200 mg bid. Liver enzymes returned to normal within six weeks. […] The anti-MAC medications were discontinued after […] of oxymatrine therapy. The dose of oxymatrine was tapered to 100 mg tid at four and a half months of therapy and then stopped after six months of total therapy. The patient felt well at the six month follow-up.

Consider `O=C1CCC[C@@H]2[C@H]3CCC[N@+]4([O-])CCC[C@@H](CN12)[C@@H]34` [oxymatrine], for which the clinical outcome in the data set on enterovirus [1] is “resumed their normal activity”; in data set [2] (Example 2 patient, three months after finishing the medication) it was “went back to full-time work”; in data set [2] (Example 3 patient, after taking oxymatrine for six months) it was “felt well”; in data set [2] (Example 4 patient, after taking the medication for six weeks), “returned to full-time work”; in data set [2] (Example 5 patient, three months later) it was “able to return to part-time work and regular exercise”; in data set [4] (three months), “went back to full-time work”. The relapse after therapy entry in data set [2] (Example 2 patient) is listed as “had not relapsed for at least one year”. In addition, the “laboratory studies including CBC and complete chemistry panel during therapy” value in data set [2] (Example 2 patient, calcium resolved after stopping hydrochlorothiazide) is “normal except mildly elevated calcium levels”. Besides, the “routine laboratory tests including CBC, chemistry panel and CPK” value in data set [2] (Example 3 patient, one week after starting oxymatrine) is on record as “normal”. The myalgia pain score in data set [2] (Example 3 patient, three days after starting 300 mg bid, 7/10 before) is listed as 10/10. For the same molecule, the “laboratory tests while on therapy” value in data set [2] (Example 4 patient) was “normal”. Moreover, the tolerability result in data set [2] (Example 4 patient) is reported as “tolerated well without any adverse reactions”. In addition, in data set [2] (Example 5 patient, two months on 500 mg per day, resolved after stopping oxymatrine), the symptoms during therapy entry is “severe diffuse ulcerations of the mouth mucosa, increasing headache, sinus congestion and severe myalgia”. The diarrhea outcome is recorded as “resolved completely in a few days” in the data set with enterovirus [3] (Example 11 patient, oxymatrine 200 mg bid) and “resolved within one week” in the data set on enterovirus [3] (Example 12 patient). Moreover, the outbreaks of shingles result in data set [4] was “less often and not as severe”. Besides, in data set [5] (about two months after start, returned to normal within six weeks after dose tapering to 200 mg bid), the “elevation of liver enzymes” value worked out at 3.5 times normal values. Moreover, in data set [5] (in vivo), the “repeat computed tomography scans of the chest” value is “healing and calcifications of the lesions”. The “repeat bronchial washing culture” value in data set [5] (six months after onset of oxymatrine therapy, with anti-MAC medications) is recorded as “no growth of MAC”. Also, the night sweats result in data set [5] (within two months) was “decreased from twice a week to once every two weeks”.
